Assay results taken from US20240384268A1, “Oligonucleotides” (Hudson Institute of Medical Research, priority 2021, published 2024).
In the oligonucleotide strings, read from the 5' end, every base follows the letter of its sugar. An asterisk marks phosphorothioate; unmarked linkages are phosphodiester. Other units and linkages are bracketed, terminal groups are in braces. A string of capitals states the bases alone. d = 2'-deoxy (DNA); m = 2'-O-methyl

Assays:
mouse cGAS = target: T1, mouse cGAS (Mus musculus, UniProt Q8C6L5); assay: ISD45-driven ISRE-luciferase in mouse LL171 cells; assay type: cell-based; conditions: for effect on ISD-driven ISRE-luciferase, LNA and MOE ASOs (in words): 200 nM or indicated concentrations, ~30 min, ISD overnight (FIG. 22-24); for inhibition of ISD45-driven ISRE-luciferase (in words): 2′OMe or PS oligos 50-600 nM, ISD45 2.5 μg/ml overnight
T1 construct: endogenous in cells; host or cells: LL171 (mouse L929 cells with ISRE-Luciferase)
T1 sequence (Q8C6L5 whole entry): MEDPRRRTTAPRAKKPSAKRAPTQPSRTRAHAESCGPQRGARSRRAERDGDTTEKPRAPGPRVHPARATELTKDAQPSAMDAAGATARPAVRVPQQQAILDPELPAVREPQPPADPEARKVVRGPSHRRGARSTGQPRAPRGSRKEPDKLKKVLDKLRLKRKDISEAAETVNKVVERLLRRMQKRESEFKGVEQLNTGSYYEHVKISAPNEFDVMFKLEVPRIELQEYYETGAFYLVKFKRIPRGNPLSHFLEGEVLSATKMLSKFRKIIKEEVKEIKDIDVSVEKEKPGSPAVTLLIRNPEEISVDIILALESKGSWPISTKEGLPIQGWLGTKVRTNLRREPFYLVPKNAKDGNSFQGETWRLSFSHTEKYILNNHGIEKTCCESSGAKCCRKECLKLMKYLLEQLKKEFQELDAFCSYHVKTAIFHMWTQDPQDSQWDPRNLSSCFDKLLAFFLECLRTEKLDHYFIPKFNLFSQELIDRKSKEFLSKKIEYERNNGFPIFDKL
Procedure: In such examples, inhibition of cGAS activity can be identified by observation of an overall decreased cGAS response of the cell population, or a lower proportion of cells having cGAS-positive activity as compared to positive control condition in which cells are treated with cGAS agonist in the absence of the oligonucleotide (or in the presence of an appropriate control inhibitory agent). In one example, THP-1 or HT-29 cells are transfected with ISD70 and incubated with an oligonucleotide. cGAS activity can then be determined by cytokine (e.g., IP-10 and/or IFNβ) expression (e.g., gene and/or protein expression) and/or secretion levels, such as by ELISA. A similar assay can be performed with LL171 cells transfected with ISD45. […] By way of example, cGAS enzymatic activity may be assessed in vitro using recombinant cGAS and then measuring activity thereof by way of a cGAMP ELISA.
For cGAS stimulations, cells were treated for indicated duration with ASOs, prior to transfection with ISD70 (human cells) or ISD45 (mouse cells) (the ASOs were not washed off prior to ISD transfection unless otherwise indicated). The cGAS ligands ISD45 (Stetson and Medzhitov, 2006) and ISD70 (also known as VACV-70 (Unterholzner et al., 2010)) (Table 1) were resuspended as follows: 5 1d of sense and 5 μl of antisense strands at 10 μg/μl were added to 90 μl PBS under sterile conditions, heated at 75° C. for 30 min, prior to letting cool down at room temperature and aliquoting (stock at 1 μg/1 l). The ISDs were transfected at a concentration of […] at a ratio of 1 μg:1 μl with Lipofectamine 2000 in Opti-MEM (Thermo Fisher Scientific). HEK-TLR3, HEK-TLR7 and […] were treated with indicated concentration of ASOs for 20-50 min, prior to stimulation with poly(I:C) (Invivogen), R848 (Invivogen), Motolimod (MedChemExpress) and the Class B CpG oligonucleotides ODN 2006 (synthesised by IDT and resuspended in RNase-free TE buffer [Table 1]), respectively. The TLR2/1 agonist PAM3CSK4 (Invivogen), the TLR4 agonist lipopolysaccharide (Invivogen), the Class B CpG oligonucleotides ODN 1826 (synthesised by IDT and resuspended in RNase-free TE buffer), the mouse Sting agonist DMXAA (Cayman) and the human STING agonist (compound #3 from (Raanjulu et al., 2018), referred to as GSK herein—kind gift from Cancer Therapeutics CRC, Australia) were used at indicated concentrations. Aspirin (Sigma—A2093) was resuspended in pure medium to 10 mM, filter sterilised and added to the cells at 2 mM final. All ASOs were synthesised by Integrated DNA Technologies (IDT), and resuspended in RNase-free TE buffer, pH 8.0 (Thermo Fisher Scientific). Cell viability was assessed by adding 1× fresh resazurin solution to the wells (10λ solution made up with 7 mg resazurin [Sigma—R7017] dissolved in 3.5 ml PBS, sterile filtered at […]) for 4 h, prior to reading at with a Fluostar OPTIMA (BMG LABTECH) plate-reader (fluorescence: Excitation 535 nm, Emission 590); wells with medium only and 1× resazurin were used as blanks.
Following transfection, the cells were collected from the 6-wells and aliquoted into 96-wells, just before ASO and overnight TLR stimulation (as above described).

[1] = target: T2, Recombinant full-length human cGAS (Homo sapiens, UniProt Q8N884); assay: cGAS in vitro assay and cGAMP ELISA; assay type: biochemical; conditions: 2.3 μM ISD70, 40 min; for cGAMP production driven by ISD70 (in words): 0.5 μM oligonucleotide
T2 construct: Recombinant full-length human cGAS (Cayman, #22810); purchased Cayman #22810
T2 sequence (Q8N884 whole entry): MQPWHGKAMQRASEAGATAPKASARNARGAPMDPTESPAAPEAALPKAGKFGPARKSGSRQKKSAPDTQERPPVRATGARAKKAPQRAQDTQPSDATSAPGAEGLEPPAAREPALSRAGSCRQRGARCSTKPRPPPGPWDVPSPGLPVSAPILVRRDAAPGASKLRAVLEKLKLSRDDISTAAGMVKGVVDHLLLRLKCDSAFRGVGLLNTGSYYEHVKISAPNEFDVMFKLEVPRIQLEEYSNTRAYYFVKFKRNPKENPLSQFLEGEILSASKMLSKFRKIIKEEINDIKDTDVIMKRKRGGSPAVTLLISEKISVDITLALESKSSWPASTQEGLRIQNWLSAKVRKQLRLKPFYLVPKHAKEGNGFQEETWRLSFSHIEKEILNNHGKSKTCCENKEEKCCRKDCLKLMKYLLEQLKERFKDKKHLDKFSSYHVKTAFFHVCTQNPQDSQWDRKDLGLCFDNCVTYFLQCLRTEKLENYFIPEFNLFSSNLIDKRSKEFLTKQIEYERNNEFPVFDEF
Procedure: 0.8 μg of Recombinant full-length human cGAS (Cayman, #22810) was used per single reaction in a 200 μl volume with 80 mM Tris-HCl (pH 7.5), 200 mM NaCl, 20 μM ZnCl2, 20 mM MgCl2, 0.25 mM GTP (Thermofisher #R0441) and 0.25 mM ATP (Thermofisher #R0461), with 20 μg of ISD70 (freshly annealed at 1 μg/l in PBS), and 2 μl C2-Mut1/A151 diluted in TE buffer (to get 0.5, 2 or 10 μM ODN concentration in 200 l). After 40 min at 37° C., 2.5 mM EDTA was added to each tube to stop the enzymatic reaction and the samples were either snap frozen and stored at −80° C. or directly processed for cGAMP ELISA. cGAMP levels were measured with the DetectX Direct 2′,3′-Cyclic GAMP Enzyme Immunoassay Kit (Arbor Assays), according to the manufacturer's protocol. Briefly, 50 μL of in vitro reaction were added per well of the kit microplate with 50 μL Assay buffer, 25 μL conjugate, and 25 μL Antibody per well, prior to a minimum of 2 h incubation. The standards were prepared with serial-dilution in Assay buffer. Quantification of cGAMP levels was performed on a Fluostar OPTIMA (BMG LABTECH) plate-reader at 450 nm.

Substance	effect on ISD-driven ISRE-luciferase, LNA and MOE ASOs (in words) (mouse cGAS)	cGAMP production driven by ISD70 (in words) [1]	inhibition of ISD45-driven ISRE-luciferase (in words) (mouse cGAS)	also measured
GCAGGCTCAGTGATGT (antisense; LNA-modified, pattern not given here) [CTNN2B-1642 LNA V1]	increased potentiation of ISD sensing			
GTGTCTGGAAGCTTCC (antisense; LNA-modified, pattern not given here) [CTNN2B-809 LNA V1]	strongly potentiating the ISRE-Luciferase signal			
T*T*A* G*G*G* T*T*A* G*G*G* T*T*A* G*G*G* T*T*A* G*G*G [A151, reference compound]		similarly reduced cGAMP production		
mC*mG*mU*T*T*C*C*C*C*C*C*C*C*C*C*C*C*C*C*C (CGUTTCCCCCCCCCCCCCCC; antisense; sugars from the 5' end m3 d17, all phosphorothioate, methylation of C not given here) [[C2]Mut1-v3-dC]			lacked significant inhibitory activity	
mG*mC*mG*mG*mU*A*T*C*C*A*T*G*T*C*C*mC*mA*mG*mG*mC (mG*mC*mG*mG*mU*dA*dT*dC*dC*dA*dT*dG*dT*dC*dC*mC*mA*mG*mG*mC; antisense) [C2-Mut1]		similarly reduced cGAMP production	significantly more inhibitory	inhibitory activity on cGAMP production relative to A151 ([1]; 2 μM oligonucleotide): about 2 fold
mG*mG*mU*A*T*C*C*C*C*C*C*C*C*C*C*C*C*C*C*C (GGUATCCCCCCCCCCCCCCC; antisense; sugars from the 5' end m3 d17, all phosphorothioate, methylation of C not given here) [[C2]Mut1-dC]			significantly more inhibitory than its precursor dC20	
